Experimental data published in the CheMixHub ionic liquid set.

Experiment: xn = mol fraction of the nth substance listed
Conditions: for electrical conductivity: frequency 0.003 MHz

CC[n+]1ccn(C)c1.CS(=O)(=O)[O-] + O
Conditions | electrical conductivity [S/m] | viscosity [mPa·s]
293.15 K, 100 kPa, x1 = 0.0165 | 3.25 | –
293.15 K, 100 kPa, x1 = 0.0674 | – | 3.026
298.15 K, 102.2 kPa, x1 = 0.75 | – | 42.2
303.15 K, 100 kPa, x1 = 0.0177 | – | 1.135
303.15 K, 100 kPa, x1 = 0.1122 | 4.74 | –
303.15 K, 100 kPa, x1 = 0.9357 | – | 115
303.15 K, 102.2 kPa, x1 = 0.75 | – | 34.3
313.15 K, 100 kPa, x1 = 0.0357 | – | 1.237
313.15 K, 100 kPa, x1 = 0.1089 | – | 3.068
313.15 K, 100 kPa, x1 = 0.3752 | 2.25 | –
313.15 K, 102.2 kPa, x1 = 0.75 | – | 24
323.15 K, 100 kPa, x1 = 0.0177 | – | 0.756
323.15 K, 100 kPa, x1 = 0.0357 | – | 1.012
323.15 K, 100 kPa, x1 = 0.0489 | 8.42 | –
323.15 K, 100 kPa, x1 = 0.2034 | 5.15 | –
323.15 K, 100 kPa, x1 = 0.3752 | 2.92 | –
323.15 K, 100 kPa, x1 = 0.4263 | – | 12.22
323.15 K, 100 kPa, x1 = 0.9339 | 0.827 | –
328.15 K, 102.2 kPa, x1 = 0.75 | – | 15.7
343.15 K, 100 kPa, x1 = 0.0165 | 7.59 | –
343.15 K, 100 kPa, x1 = 0.0489 | 11.4 | –
353.15 K, 100 kPa, x1 = 0.0165 | 8.61 | –
353.15 K, 100 kPa, x1 = 0.0489 | 13 | –
353.15 K, 100 kPa, x1 = 0.0674 | – | 0.879
353.15 K, 100 kPa, x1 = 0.1848 | – | 2.346
353.15 K, 100 kPa, x1 = 0.3752 | 5.32 | –
353.15 K, 100 kPa, x1 = 0.9339 | 2.01 | –

C[C@H](N)C(=O)[O-].C[N+](C)(C)CCO + O
Conditions | viscosity [mPa·s]
287.97 K, 100 kPa, x1 = 0.2939 | 177
288.1 K, 100 kPa, x1 = 1 | 5100
289.25 K, 100 kPa, x1 = 0.5975 | 970
289.31 K, 100 kPa, x1 = 0.692 | 1467
289.96 K, 100 kPa, x1 = 1 | 3700
290.48 K, 100 kPa, x1 = 0.2939 | 153
290.53 K, 100 kPa, x1 = 0.7994 | 1752
292.92 K, 100 kPa, x1 = 0.097 | 8.7
292.92 K, 100 kPa, x1 = 0.4948 | 490
292.92 K, 100 kPa, x1 = 0.5975 | 710
292.92 K, 100 kPa, x1 = 0.692 | 1030
294.1 K, 100 kPa, x1 = 0.097 | 8.4
294.1 K, 100 kPa, x1 = 0.4948 | 450
294.1 K, 100 kPa, x1 = 0.692 | 930
294.1 K, 100 kPa, x1 = 0.7994 | 1250
295.27 K, 100 kPa, x1 = 0.7994 | 1129
296.45 K, 100 kPa, x1 = 0.4948 | 377
296.45 K, 100 kPa, x1 = 0.7994 | 1016
297.63 K, 100 kPa, x1 = 0.097 | 7.4
298.1 K, 101.3 kPa, x1 = 0.2727 | 33
298.81 K, 100 kPa, x1 = 0.2939 | 90
298.81 K, 100 kPa, x1 = 0.7994 | 840
299.98 K, 100 kPa, x1 = 0.097 | 6.9
299.98 K, 100 kPa, x1 = 0.3748 | 156
300.27 K, 100 kPa, x1 = 1 | 1538
301.16 K, 100 kPa, x1 = 0.692 | 530
302.34 K, 100 kPa, x1 = 0.3748 | 135
303.51 K, 100 kPa, x1 = 0.3748 | 126
303.51 K, 100 kPa, x1 = 0.7994 | 580
304.72 K, 100 kPa, x1 = 1 | 1206
305.86 K, 100 kPa, x1 = 0.3748 | 109
305.86 K, 100 kPa, x1 = 0.4948 | 200
305.86 K, 100 kPa, x1 = 0.8993 | 680
307.04 K, 100 kPa, x1 = 0.3748 | 103
307.04 K, 100 kPa, x1 = 0.5975 | 254
307.04 K, 100 kPa, x1 = 0.8993 | 630
313 K, 101.3 kPa, x1 = 0.1233 | 5.7
323.2 K, 100 kPa, x1 = 1 | 337
333 K, 101.3 kPa, x1 = 0.05881 | 2.27
